{"source": "paper PMC6414029", "about": "“Utilisation of the Prestwick Chemical Library to identify drugs that inhibit the growth of mycobacteria” (PLoS ONE, 2019)", "key": {"BCG [1]": {"tested_on": "BCG", "experiment": "microbe, parasite or virus in culture", "type": "cell-based, Mycobacterium bovis BCG", "conditions": "for MIC: Mycobacterium tuberculosis variant bovis BCG, BCG, read-out: Liquid MIC"}, "BCG [2]": {"tested_on": "BCG", "experiment": "microbe, parasite or virus in culture", "type": "cell-based, Mycobacterium bovis BCG", "conditions": "for MIC: Mycobacterium tuberculosis variant bovis BCG"}, "M. tuberculosis H37Rv": {"tested_on": "M. tuberculosis H37Rv", "experiment": "Alamar Blue (resazurin) MIC assay", "type": "cell-based, Mycobacterium tuberculosis", "conditions": "liquid growth media", "protocol": "To investigate the effects of repurposed compounds on growth of M. tuberculosis H37Rv using an Alamar Blue based MIC assay using the resazurin reagent. This assay was performed in 7H9 medium containing Middlebrook broth and 0.5% glycerol and supplemented with oleic acid, albumin, dextrose, and catalase. Clear- 96-well plates were inoculated with 100 μL of drug diluted with 90 μl of 7H9 medium and 10 μL DMSO. Serial 3-fold dilutions of each drug in 100 μL of 7H9 medium were prepared at various ranges. Growth controls containing no antibiotic and sterility controls without inoculation were also included. 200 μL of sterile deionized water was added to the outer perimeter wells to prevent evaporation during plate incubation. Plates were incubated plate at 37°C for 3–4 days. After incubation, the plates were removed and 10 μL of resazurin (0.02% w/v) was added to each well that contained bacteria. Assay plates were reincubated at 37°C for 24–48 hours and visually assessed for colour development. OD 570 nm readings were taken to provide further quantitation provide an interpretation of the dose response of the bacterium to repurposed compounds."}, "HepG2 cells": {"tested_on": "HepG2 cells", "experiment": "HepG2 cytotoxicity assay (CellTitre-Glo)", "type": "cell-based", "protocol": "Actively growing HepG2 cells were removed from a T-175 tissue culture flask with 5 mL of Eagle’s MEM containing 10% FBS/1%NEAA/1% Penicillin and Streptomycin) and mixed with gentle pipetting. […] The cell suspension was added to 250 mL of the same medium at a final density of […]. […] Plates were allowed to incubate at 37°C at a relative humidity of 80% and 5% CO2 for 48 hours. After incubation, the plates were allowed to equilibrate at room temperature for 30 mins before 25 μL of CellTitre-Glo (Promega) reagent was added to each well using a multichannel pipette. Plates were left at room temperature for 30 mins before relative luminescence was read using a BMG Labtech POLARstar Omega plate reader."}, "M. smegmatis [3]": {"tested_on": "M. smegmatis", "experiment": "microbe, parasite or virus in culture", "type": "cell-based, Mycobacterium smegmatis", "conditions": "liquid medium"}, "M. smegmatis [4]": {"tested_on": "M. smegmatis", "experiment": "MIC determination on solid agar", "type": "cell-based, Mycobacterium smegmatis", "conditions": "M. smegmatis, 7H10 solid agar, absence of colonies, read-out: Solid MIC", "protocol": "Drugs were diluted from a 10mM stock, mixed individually in 2 mLs of molten 7H10 agar and dispensed in square partitioned petri plates. Plates were incubated at 37°C and solid MIC was determined based on absence of colonies."}, "M. smegmatis [5]": {"tested_on": "M. smegmatis", "type": "cell-based, Mycobacterium smegmatis", "conditions": "20 μM compound, 48 hr read, GFP fluorescence"}, "BCG [6]": {"tested_on": "BCG", "type": "cell-based, Mycobacterium bovis BCG"}, "[7]": {"conditions": "read-out: Solid MIC, BCG, 7H10 solid agar, absence of colonies"}, "[8]": {"conditions": "read-out: Solid MIC, BCG, solid agar, values given in mM"}}, "note": "Counter-ions that a name gives are not always drawn. Like-named read-outs stand apart in the source and are kept apart here.", "data": [{"smiles": "CN(C)CC/C=C1/c2ccccc2COc2ccc(CC(=O)O)cc21", "note": "[Olopatadine]", "values": [{"measurement": "Liquid MIC", "setting": "BCG [1]", "result": 202.30, "unit": "µM"}, {"measurement": "MIC", "setting": "BCG [1]", "result": 202, "unit": "µM"}, {"measurement": "MIC", "setting": "BCG [2]; [7]", "result": "≥ 0.5", "unit": "mM"}, {"measurement": "MIC", "setting": "BCG [2]; [8]", "result": "> 0.5", "unit": "mM"}]}, {"smiles": "N=C(N)c1ccc(OCCCCCOc2ccc(C(=N)N)cc2)cc1", "note": "[Pentamidine]", "values": [{"measurement": "MIC", "setting": "BCG [1]", "result": 3.23, "unit": "µM"}, {"measurement": "MIC", "setting": "BCG [2]; [7]", "result": 0.05, "unit": "mM"}, {"measurement": "MIC", "setting": "BCG [2]; [8]", "result": "~0.05", "unit": "mM"}, {"measurement": "MIC", "setting": "M. tuberculosis H37Rv; Mycobacterium tuberculosis", "result": 10.5, "unit": "µM"}, {"measurement": "IC50", "setting": "HepG2 cells; Homo sapiens, HepG2, 48 hours", "result": 3.5, "unit": "µM"}]}, {"smiles": "CC(C)(N)Cc1ccccc1", "note": "[Phenteramine, Phentermine]", "values": [{"measurement": "MIC", "setting": "BCG [1]", "result": 375, "unit": "µM"}]}, {"smiles": "O=C(c1ccc(OCCN2CCCCC2)cc1)c1c(-c2ccc(O)cc2)sc2cc(O)ccc12", "note": "[Raloxifene]", "values": [{"measurement": "MIC", "setting": "M. smegmatis [3]", "result": 25.7, "unit": "µM"}, {"measurement": "MIC", "setting": "M. smegmatis [4]", "result": 312.5, "unit": "µM"}, {"measurement": "MIC", "setting": "M. tuberculosis H37Rv", "result": 22.10, "unit": "µM"}, {"measurement": "IC50", "setting": "HepG2 cells; 48 hours", "result": 20, "unit": "µM"}]}, {"smiles": "CN(CCOc1ccc(CC2SC(=O)NC2=O)cc1)c1ccccn1", "note": "(stereo not shown) [Rosiglitazone]", "values": [{"measurement": "MIC", "setting": "BCG [1]", "result": 43.1, "unit": "µM"}, {"measurement": "MIC", "setting": "BCG [2]; [7]", "result": "≥ 1.5", "unit": "mM"}, {"measurement": "MIC", "setting": "BCG [2]; [8]", "result": "~1.5", "unit": "mM"}]}, {"smiles": "CN[C@H]1CC[C@@H](c2ccc(Cl)c(Cl)c2)c2ccccc21", "note": "[Sertraline]", "values": [{"measurement": "MIC", "setting": "M. smegmatis [3]", "result": 526.7, "unit": "µM"}, {"measurement": "MIC", "setting": "M. smegmatis [4]; Mycolicibacterium smegmatis", "result": 90, "unit": "µM"}]}, {"smiles": "CCCCCCCCNC(C)C(O)c1ccc(SC(C)C)cc1", "note": "(stereo not shown) [Sulocitidil]", "values": [{"measurement": "MIC", "setting": "M. smegmatis [3]", "result": 87.22, "unit": "µM"}, {"measurement": "MIC", "setting": "M. smegmatis [4]", "result": 625, "unit": "µM"}]}, {"smiles": "CC/C(=C(\\c1ccccc1)c1ccc(OCCN(C)C)cc1)c1ccccc1", "note": "[Tamoxifen citrate]", "values": [{"measurement": "MIC", "setting": "M. smegmatis [3]", "result": 26.48, "unit": "µM"}, {"measurement": "MIC", "setting": "M. tuberculosis H37Rv; Mycobacterium tuberculosis", "result": "≥ 100", "unit": "µM"}]}, {"smiles": "CCCCCCCCCCCCCCCC[N+](C)(C)CCN(Cc1ccc(OC)cc1)c1ncccn1", "note": "[Thonzonium, Thonzonium bromide]", "values": [{"measurement": "MIC", "setting": "BCG [1]", "result": 0.16, "unit": "µM"}, {"measurement": "Solid MIC relative to liquid MIC", "setting": "BCG [2]", "result": 5, "unit": "fold"}, {"measurement": "MIC", "setting": "BCG [2]; [7]", "result": "~0.005", "unit": "mM"}]}, {"smiles": "CN(C)CCOc1ccc(/C(=C(/CCCl)c2ccccc2)c2ccccc2)cc1", "note": "[Toremifene]", "values": [{"measurement": "MIC", "setting": "M. smegmatis [3]", "result": 23.76, "unit": "µM"}, {"measurement": "MIC", "setting": "M. smegmatis [4]; Mycolicibacterium smegmatis", "result": 62.5, "unit": "µM"}]}, {"smiles": "CN(C)CCN(Cc1ccccc1)c1ccccn1", "note": "[Tripelennamine]", "values": [{"measurement": "MIC", "setting": "BCG [1]", "result": 41.9, "unit": "µM"}, {"measurement": "Solid MIC relative to liquid MIC", "setting": "BCG [2]", "result": 2, "unit": "fold"}, {"measurement": "MIC", "setting": "BCG [2]; [7]", "result": 0.1, "unit": "mM"}, {"measurement": "MIC", "setting": "BCG [2]; [8]", "result": 0.1, "unit": "mM"}, {"measurement": "MIC", "setting": "M. tuberculosis H37Rv; Mycobacterium tuberculosis", "result": 49.3, "unit": "µM"}, {"measurement": "IC50", "setting": "HepG2 cells; Homo sapiens, HepG2, 48 hours", "result": "> 250", "unit": "µM"}]}, {"smiles": "CC[C@@H](CO)NCCN[C@@H](CC)CO", "note": "[ethambutol]", "values": [{"measurement": "% survival", "setting": "M. smegmatis [5]", "result": "< 25", "unit": "%"}, {"measurement": "% survival", "setting": "BCG [6]", "result": "< 25", "unit": "%"}]}, {"smiles": "NNC(=O)c1ccncc1", "note": "[isoniazid]", "values": [{"measurement": "% survival", "setting": "M. smegmatis [5]", "result": "< 25", "unit": "%"}, {"measurement": "% survival", "setting": "BCG [6]", "result": "< 25", "unit": "%"}]}, {"smiles": "NC(=O)c1cnccn1", "note": "[pyrazinamide]", "values": [{"measurement": "% survival", "setting": "BCG [6]", "result": "< 25", "unit": "%"}]}, {"smiles": "CO[C@H]1/C=C/O[C@@]2(C)Oc3c(C)c(O)c4c(O)c(c(/C=N/N5CCN(C)CC5)c(O)c4c3C2=O)NC(=O)/C(C)=C\\C=C\\[C@H](C)[C@H](O)[C@@H](C)[C@@H](O)[C@@H](C)[C@H](OC(C)=O)[C@@H]1C", "note": "[rifampicin]", "values": [{"measurement": "% survival", "setting": "M. smegmatis [5]", "result": "< 25", "unit": "%"}, {"measurement": "% survival", "setting": "BCG [6]", "result": "< 25", "unit": "%"}]}, {"smiles": "[H]/N=C(/N)N[C@H]1[C@H](O)[C@@H](O)[C@H](O[C@@H]2O[C@@H](C)[C@](O)(C=O)[C@H]2O[C@@H]2O[C@@H](CO)[C@H](O)[C@@H](O)[C@@H]2NC)[C@@H](N/C(N)=N\\[H])[C@@H]1O", "note": "[streptomycin]", "values": [{"measurement": "% survival", "setting": "M. smegmatis [5]", "result": "< 25", "unit": "%"}, {"measurement": "% survival", "setting": "BCG [6]", "result": "< 25", "unit": "%"}]}]}
